In this experiment the target is T1, viral kinase pUL-97 (Human cytomegalovirus, UniProt P16788).
T1 construct: The pUL-97 gene was cloned into a baculovirus vector; GST (glutathione S-transferase) (N); made in house; host or cells: Sf9 insect cells, baculovirus
As to the kind of experiment: UL97 kinase assay on Immobilon plate. Format: biochemical. The note with it: inhibition of UL 97 kinase activity, read-out: Activity Class [A, B, C]. The essentials:
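Compound was titrated into a radiometric reaction of Sf9-expressed GST-UL97 kinase, incubated 1 h at 30 °C in Tris-HCl pH 7.5/MnCl2/DTT buffer before EDTA stop. MBP substrate and ATP (3 μM in the added assay buffer) were supplied with γ-[33P]ATP. Labelled product bound to Immobilon filter was washed and counted by scintillation.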

[1] abbreviates: class by IC50 / % inhibition at 10 μM or 100 μM.
Setting [2] is: class by IC50 / % inhibition at 10 or 100 μM.

Like-named read-outs stand apart in the source and are kept apart here. Where only a bound is given, the exact number is not on record here.

T1 sequence (P16788 whole entry): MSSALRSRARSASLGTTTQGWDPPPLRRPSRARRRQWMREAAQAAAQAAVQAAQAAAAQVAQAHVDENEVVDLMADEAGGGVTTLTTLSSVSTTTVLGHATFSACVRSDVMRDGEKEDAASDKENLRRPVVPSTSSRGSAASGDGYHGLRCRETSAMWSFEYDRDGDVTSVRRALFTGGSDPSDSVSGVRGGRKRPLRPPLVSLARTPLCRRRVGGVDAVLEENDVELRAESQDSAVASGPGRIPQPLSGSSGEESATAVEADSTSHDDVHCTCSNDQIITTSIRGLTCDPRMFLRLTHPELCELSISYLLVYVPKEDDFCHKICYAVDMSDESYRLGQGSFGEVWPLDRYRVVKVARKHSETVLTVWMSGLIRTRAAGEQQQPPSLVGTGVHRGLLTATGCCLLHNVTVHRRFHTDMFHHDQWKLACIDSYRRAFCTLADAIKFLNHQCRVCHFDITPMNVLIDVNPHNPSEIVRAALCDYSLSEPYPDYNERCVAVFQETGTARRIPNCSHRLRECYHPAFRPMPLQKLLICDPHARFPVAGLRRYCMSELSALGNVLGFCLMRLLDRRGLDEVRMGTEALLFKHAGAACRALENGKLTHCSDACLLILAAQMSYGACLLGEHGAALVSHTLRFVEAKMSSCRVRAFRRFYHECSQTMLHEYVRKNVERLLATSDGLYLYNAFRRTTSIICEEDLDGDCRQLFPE

Regarding `Fc1ccc(N2CCN(c3cncc(-c4ccc5ccccc5c4)n3)CC2)c(F)c1` [compound 199, 4-(2,4-Difluoro-phenyl)-6′-naphthalen-2-yl-3,4,5,6-tetrahydro-2H-[1,2′]bipyrazinyl], the IC50 under setting [1] was 1 to 10 µM.
Consider `Clc1ccc(N2CCN(c3cncc(-c4cccc5ccccc45)n3)CC2)cc1Cl` [compound 287, 4-(3,4-Dichloro-phenyl)-6′-naphthalen-1-yl-3,4,5,6-tetrahydro-2H-[1,2′]bipyrazinyl], for which the IC50 under setting [1] is 10 to 100 µM.
`COc1ccc(N2CCN(c3cncc(-c4csc5ccccc45)n3)CC2)cc1` [compound 283, 6′-Benzo[b]thiophen-3-yl-4-(4-methoxy-phenyl)-3,4,5,6-tetrahydro-2H-[1,2′]bipyrazinyl]: under setting [1], the IC50 is 1 to 10 µM.
For `Clc1cccc(N2CCN(c3cncc(-c4ccoc4)n3)CC2)c1` [compound 84, 4-(3-Chloro-phenyl)-6′-furan-3-yl-3,4,5,6-tetrahydro-2H-[1,2′]bipyrazinyl], under setting [2], the IC50 was in the range of 1 to 10 µM.
As for `Cc1ccc(-c2cncc(N3CCN(c4ccc(C)cc4)CC3)n2)cc1` [compound 229, 4,6′-Di-p-tolyl-3,4,5,6-tetrahydro-2H-[1,2′]bipyrazinyl], the IC50 under setting [1] fell in the range of 10 to 100 µM.
For the molecule `Fc1ccc(-c2cncc(N3CCN(c4ccc(Cl)c(Cl)c4)CC3)n2)cc1` [compound 370], the IC50 under setting [1] was 10 to 100 µM.
Same read-out and setting: then `CC(=O)c1ccc(N2CCN(c3cncc(-c4ccccc4Oc4ccccc4)n3)CC2)cc1` [compound 215, 1-{4-[6′-(2-Phenoxy-phenyl)-2,3,5,6-tetrahydro-[1,2′]bipyrazinyl-4-yl]-phenyl}-ethanone], with 10 to 100 µM; and `c1ccc(N2CCN(c3cncc(-c4cccc5ccccc45)n3)CC2)cc1` [compound 246, 6′-Naphthalen-1-yl-4-phenyl-3,4,5,6-tetrahydro-2H-[1,2′]bipyrazinyl], with 10 to 100 µM.
In the case of `Fc1ccc(-c2cncc(N3CCN(c4ccccc4F)CC3)n2)cc1` [compound 114, 4-(2-Fluoro-phenyl)-6′-(4-fluoro-phenyl)-3,4,5,6-tetrahydro-2H-[1,2′]bipyrazinyl], the IC50 under setting [2] was in the range of 1 to 10 µM.
Take `CSc1ccc(-c2cncc(N3CCN(c4cccc(C)c4)C(C)C3)n2)cc1` (stereo not drawn) [compound 301, 3-Methyl-6′-(4-methylsulfanyl-phenyl)-4-m-tolyl-3,4,5,6-tetrahydro-2H-[1,2′]bipyrazinyl]: the IC50 under setting [1] was in the range of 10 to 100 µM.
Same read-out and setting: then `FC(F)(F)c1ccc(N2CCN(c3cncc(-c4ccc5ccccc5c4)n3)CC2)cc1` [compound 352, 6′-Naphthalen-2-yl-4-(4-trifluoromethyl-phenyl)-3,4,5,6-tetrahydro-2H-[1,2′]bipyrazinyl], with 1 to 10 µM; and `Fc1ccc(N2CCN(c3cncc(-c4ccoc4)n3)CC2)c(F)c1` [compound 201, 4-(2,4-Difluoro-phenyl)-6′-furan-3-yl-3,4,5,6-tetrahydro-2H-[1,2′]bipyrazinyl], with 1 to 10 µM.
Take `Cc1ccc(N2CCN(c3cncc(-c4ccccc4)n3)CC2)cc1` [compound 135, 6′-Phenyl-4-p-tolyl-3,4,5,6-tetrahydro-2H-[1,2′]bipyrazinyl]: under setting [2], the IC50 fell in the range of 10 to 100 µM.
For the molecule `CSc1ccc(-c2cncc(N3CCN(c4cccc(Cl)c4)CC3)n2)cc1` [compound 102, 4-(3-Chloro-phenyl)-6′-(4-methylsulfanyl-phenyl)-3,4,5,6-tetrahydro-2H-[1,2′]bipyrazinyl], the IC50 under setting [2] is 1 to 10 µM.
The same measure, in the same setting: the figure for `Nc1ncc(-c2ccc3ccccc3c2)nc1N1CCN(c2ccncc2)CC1` [compound 73, 6′-Naphthalen-2-yl-4-pyridin-4-yl-3,4,5,6-tetrahydro-2H-[1,2′]bipyrazinyl-3′-ylamine] is less than 1 µM; for `COc1ccc(Cl)cc1-c1cncc(N2CCN(c3ccccc3)CC2)n1` [compound 119, 6′-(5-Chloro-2-methoxy-phenyl)-4-phenyl-3,4,5,6-tetrahydro-2H-[1,2′]bipyrazinyl] it is 10 to 100 µM.
Take `COc1ccc(N2CCN(c3cncc(-c4csc5ccccc45)n3)CC2)cc1OC` [compound 227, 6′-Benzo[b]thiophen-3-yl-4-(3,4-dimethoxy-phenyl)-3,4,5,6-tetrahydro-2H-[1,2′]bipyrazinyl]: the IC50 under setting [1] was in the range of 1 to 10 µM.
As to `COc1ccc(-c2cncc(N3CCC(c4ccccc4)CC3)n2)cc1OC` [compound 360, 2-(3,4-Dimethoxy-phenyl)-6-(4-Phenyl-piperidin-1-yl)-pyrazine], under setting [1], the IC50 is 1 to 10 µM.
Consider `Fc1ccc(-c2cncc(N3CCN(c4ccccc4)CC3)n2)cc1` [compound 111, 6′-(4-Fluoro-phenyl)-4-phenyl-3,4,5,6-tetrahydro-2H-[1,2′]bipyrazinyl], for which, under setting [2], the IC50 was 1 to 10 µM.
Still for that read-out and setting: then `COc1cccc(-c2cncc(N3CCN(c4cccc(Cl)c4)CC3)n2)c1` [compound 98, 4-(3-Chloro-phenyl)-6′-(3-methoxy-phenyl)-3,4,5,6-tetrahydro-2H-[1,2′]bipyrazinyl], with 1 to 10 µM.
For the molecule `OCc1ccc(-c2cncc(N3CCN(c4ccc(F)cc4)CC3)n2)cc1` [compound 269, {4-[4-(4-Fluoro-phenyl)-3,4,5,6-tetrahydro-2H-[1,2′]bipyrazinyl-6′-yl]-phenyl}-methanol], the IC50 under setting [1] fell in the range of 1 to 10 µM.
`c1cncc(-c2cncc(N3CCN(c4cccc5[nH]ccc45)CC3)n2)c1` [compound 64, 4-(1H-Indol-4-yl)-6′-pyridin-3-yl-3,4,5,6-tetrahydro-2H-[1,2′]bipyrazinyl]: the IC50 under setting [2] is 1 to 10 µM.
Regarding `Cc1ccc(N2CCN(c3cncc(-c4ccc(F)c(Cl)c4)n3)CC2)cc1C` [compound 316, 6′-(3-Chloro-4-fluoro-phenyl)-4-(3,4-dimethyl-phenyl)-3,4,5,6-tetrahydro-2H-[1,2′]bipyrazinyl], the IC50 under setting [1] is 10 to 100 µM.
For `Cc1ccccc1-c1cncc(N2CCN(c3ccncc3)CC2)n1` [compound 256, 4-Pyridin-4-yl-6′-o-tolyl-3,4,5,6-tetrahydro-2H-[1,2′]bipyrazinyl], the IC50 under setting [1] fell in the range of 10 to 100 µM.
Same read-out and setting: then `COc1ccc(N2CCN(c3cncc(-c4ccc(C(F)(F)F)cc4)n3)CC2)cc1` [compound 355, 4-(4-Methoxy-phenyl)-6′-(4-trifluoromethyl-phenyl)-3,4,5,6-tetrahydro-2H-[1,2′]bipyrazinyl], with 1 to 10 µM.
Consider `CN(C)c1ccc(-c2cncc(N3CCN(c4ccccc4F)CC3)n2)cc1` [compound 195, {4-[4-(2-Fluoro-phenyl)-3,4,5,6-tetrahydro-2H-[1,2′]bipyrazinyl-6′-yl]-phenyl}-dimethyl-amine], for which, under setting [2], the IC50 was in the range of 1 to 10 µM.
Take `CCOc1ccc(-c2cncc(N3CCN(c4ccccc4OC)CC3)n2)cc1` [compound 92, 6′-(4-Ethoxy-phenyl)-4-(2-methoxy-phenyl)-3,4,5,6-tetrahydro-2H-[1,2′]bipyrazinyl]: under setting [2], the IC50 fell in the range of 10 to 100 µM.
As for `Cc1cccc(-c2cncc(N3CCN(c4cccc(C(F)(F)F)c4)CC3)n2)c1` [compound 154, 6′-m-Tolyl-4-(3-trifluoromethyl-phenyl)-3,4,5,6-tetrahydro-2H-[1,2′]bipyrazinyl], the IC50 under setting [2] lay within 10 to 100 µM.
With `COc1cccc(-c2cncc(N3CCN(c4ccccc4OC)CC3)n2)c1` [compound 105, 4-(2-Methoxy-phenyl)-6′-(3-methoxy-phenyl)-3,4,5,6-tetrahydro-2H-[1,2′]bipyrazinyl], the IC50 under setting [2] fell in the range of 1 to 10 µM.
Turning to `Cc1ccc(N2CCN(c3cncc(-c4ccc(N(C)C)cc4)n3)CC2)cc1` [compound 176, Dimethyl-[4-(4-p-tolyl-3,4,5,6-tetrahydro-2H-[1,2′]bipyrazinyl-6′-yl)-phenyl]-amine], the IC50 under setting [2] fell in the range of 10 to 100 µM.

Values taken from patent publication US20080194574A1, “Pyrazine Derivatives As Effective Compounds Against Infectious Diseases” (AXXIMA PHARMACEUTICALS AG, priority 2003, published 2008).
